# From PubChem BioAssay (NCI)
#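 Cells were grown in 96-well plates and exposed to each compound for 48 hours at five concentrations; endpoints were interpolated linearly between bracketing concentrations, or set to the highest concentration if not reached. TGI denotes the concentration required for complete inhibition of growth.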
# Experiments:
# Assay in all cases: NCI anticancer screen, dose series, 48 h
# UACC-62 melanoma = system: UACC-62 melanoma
# MDA-MB-435 = system: MDA-MB-435
# NCI/ADR-RES ovarian = system: NCI/ADR-RES ovarian
# HCT-15 colon = system: HCT-15 colon
# MALME-3M melanoma = system: MALME-3M melanoma
# MCF7 breast = system: MCF7 breast
# NCI-H23 lung = system: NCI-H23 lung
# HS 578T breast = system: HS 578T breast
# SK-OV-3 ovarian = system: SK-OV-3 ovarian
# K-562 leukemia = system: K-562 leukemia
# OVCAR-3 ovarian = system: OVCAR-3 ovarian
# DU-145 prostate = system: DU-145 prostate
# COLO 205 colon = system: COLO 205 colon
# UO-31 renal = system: UO-31 renal
# OVCAR-4 ovarian = system: OVCAR-4 ovarian
# SK-MEL-2 melanoma = system: SK-MEL-2 melanoma
# SF-539 CNS = system: SF-539 CNS
# CAKI-1 renal = system: CAKI-1 renal
# UACC-257 melanoma = system: UACC-257 melanoma
SMILES,TGI (UACC-62 melanoma),TGI (MDA-MB-435),TGI (NCI/ADR-RES ovarian),TGI (HCT-15 colon),TGI (MALME-3M melanoma),TGI (MCF7 breast),TGI (NCI-H23 lung),TGI (HS 578T breast),TGI (SK-OV-3 ovarian),TGI (K-562 leukemia),TGI (OVCAR-3 ovarian),TGI (DU-145 prostate),TGI (COLO 205 colon),TGI (UO-31 renal),TGI (OVCAR-4 ovarian),TGI (SK-MEL-2 melanoma),TGI (SF-539 CNS),TGI (CAKI-1 renal),TGI (UACC-257 melanoma)
c1cncc(C2(c3cc4ccccc4[nH]3)COCO2)c1 (stereo unspecified),> 100 µM,> 100 µM,> 100 µM,> 100 µM,> 100 µM,> 100 µM,> 100 µM,> 100 µM,> 100 µM,> 100 µM,> 100 µM,> 100 µM,> 100 µM,> 100 µM,> 100 µM,> 100 µM,> 100 µM,> 100 µM,> 100 µM
COC(=O)C1=C(C)NC(C)=C(C(=O)OC)C1c1ccccc1NO,> 100 µM,> 100 µM,> 100 µM,> 100 µM,> 100 µM,> 100 µM,> 100 µM,> 100 µM,> 100 µM,> 100 µM,> 100 µM,> 100 µM,> 100 µM,> 100 µM,> 100 µM,> 100 µM,> 100 µM,> 100 µM,> 100 µM
O=c1c2ccccc2nc(-c2cc3c(cc2Cl)Sc2nccn2S3(=O)=O)n1-c1ccccc1,71.7 µM,71.1 µM,46.8 µM,33 µM,> 100 µM,27.5 µM,> 100 µM,42.7 µM,> 100 µM,> 100 µM,29.4 µM,51.8 µM,> 100 µM,31.7 µM,44.8 µM,43.5 µM,40.5 µM,> 100 µM,34.2 µM
O=C(NNC(=S)Nc1ccccc1)c1cc(-c2ccccc2)nc2ccccc12,39.1 µM,59.4 µM,52.1 µM,33 µM,82.4 µM,60.8 µM,37.9 µM,65.6 µM,43.2 µM,63.2 µM,24.4 µM,39.1 µM,36.8 µM,31 µM,56.2 µM,31.9 µM,38.7 µM,64.8 µM,60.1 µM
CC[C@H](CCCC[C@H]1CC[C@@H]2CC(=O)C[C@H]12)OC,> 100 µM,> 100 µM,> 100 µM,> 100 µM,> 100 µM,> 100 µM,> 100 µM,> 100 µM,> 100 µM,55.2 µM,> 100 µM,> 100 µM,> 100 µM,> 100 µM,> 100 µM,> 100 µM,> 100 µM,> 100 µM,> 100 µM
c1ccc(-c2nnc(-c3ccccn3)c3c2C[C@@H]2C[C@@H]4Cc5c(-c6ccccn6)nnc(-c6ccccn6)c5[C@@H]4[C@H]32)nc1,> 100 µM,> 100 µM,> 100 µM,> 100 µM,> 100 µM,> 100 µM,> 100 µM,> 100 µM,> 100 µM,> 100 µM,> 100 µM,> 100 µM,> 100 µM,> 100 µM,> 100 µM,> 100 µM,> 100 µM,> 100 µM,> 100 µM
C=CCOc1cc(NC(=S)c2ccoc2C)ccc1OC,> 100 µM,> 100 µM,> 100 µM,> 100 µM,> 100 µM,> 100 µM,> 100 µM,> 100 µM,> 100 µM,> 100 µM,> 100 µM,> 100 µM,> 100 µM,> 100 µM,> 100 µM,> 100 µM,> 100 µM,> 100 µM,> 100 µM
CN(C)CCCNC(=O)c1c(O)c2ccccc2[nH]c1=O,> 100 µM,> 100 µM,> 100 µM,> 100 µM,> 100 µM,> 100 µM,> 100 µM,> 100 µM,> 100 µM,> 100 µM,> 100 µM,> 100 µM,> 100 µM,58.6 µM,> 100 µM,> 100 µM,> 100 µM,> 100 µM,> 100 µM
O=C1NCC(CSc2nc3cc(C4CCCc5c4[nH]c4ccccc54)ccc3o2)N1 (stereo unspecified),> 100 µM,> 100 µM,> 100 µM,> 100 µM,> 100 µM,> 100 µM,> 100 µM,> 100 µM,> 100 µM,> 100 µM,> 100 µM,> 100 µM,> 100 µM,> 100 µM,> 100 µM,> 100 µM,> 100 µM,> 100 µM,> 100 µM
Cc1ccc([N+](=O)[O-])cc1S(=O)(=O)Nc1ccc(C2=NOC(c3ccco3)C2)cc1 (stereo unspecified),27.1 µM,11.8 µM,52.6 µM,32 µM,53.5 µM,35.5 µM,37.4 µM,> 100 µM,97.4 µM,59.3 µM,30.7 µM,39.3 µM,80.9 µM,32.8 µM,32.7 µM,33.8 µM,68.3 µM,70.4 µM,39.1 µM
CCCc1cc(=O)oc2c3c(c4c(c12)OC(C)(C)CC4)O[C@@H](C)[C@H](C)[C@H]3O,21.1 µM,22.1 µM,29.1 µM,25.2 µM,28 µM,47.3 µM,25 µM,37.5 µM,32.6 µM,7.17 µM,32.7 µM,31.8 µM,28.6 µM,19 µM,22.5 µM,29.9 µM,38.2 µM,49.7 µM,17.7 µM
O=C(O)c1cc(CC2Cc3cc4c(cc3C2=O)CCC4)cc2c1CCC2 (stereo unspecified),> 100 µM,> 100 µM,> 100 µM,> 100 µM,> 100 µM,> 100 µM,> 100 µM,> 100 µM,> 100 µM,> 100 µM,> 100 µM,> 100 µM,> 100 µM,> 100 µM,> 100 µM,> 100 µM,> 100 µM,> 100 µM,> 100 µM
CCc1cccc(C(C)(C)C)c1NC(=S)N/C=C(/C#N)C(N)=O,> 100 µM,> 100 µM,> 100 µM,> 100 µM,> 100 µM,> 100 µM,> 100 µM,> 100 µM,> 100 µM,> 100 µM,> 100 µM,> 100 µM,> 100 µM,> 100 µM,> 100 µM,> 100 µM,> 100 µM,> 100 µM,> 100 µM
O=[N+]([O-])c1c(F)c(F)c2c(c1F)Nc1ccccc1S2,20.4 µM,14.4 µM,59.7 µM,12.6 µM,18.5 µM,17.8 µM,7.13 µM,28.6 µM,35.9 µM,> 100 µM,4.1 µM,13.3 µM,27.3 µM,34 µM,6.59 µM,4.75 µM,39.6 µM,8.24 µM,19.8 µM
Fc1ccc(C(OCCN2CCN(CCCCl)CC2)c2ccc(F)cc2)cc1,40.7 µM,32.1 µM,70.8 µM,33.8 µM,31.8 µM,41.1 µM,50.5 µM,83.8 µM,> 100 µM,60.7 µM,74.9 µM,73.7 µM,32.7 µM,> 100 µM,81.5 µM,52 µM,34.6 µM,> 100 µM,47.5 µM
CN(CCNC(=O)c1nn(-c2ccccc2)c2c1Cc1ccccc1-2)CCNC(=O)c1nn(-c2ccccc2)c2c1Cc1ccccc1-2,3.1 µM,3.17 µM,6.36 µM,3.67 µM,3.34 µM,3.19 µM,3.7 µM,3.77 µM,4.31 µM,6.59 µM,3.52 µM,6.75 µM,3.32 µM,3.22 µM,4.48 µM,3.38 µM,4.11 µM,7.28 µM,3.42 µM
O=C(O)c1n[nH][nH]c1=S,> 100 µM,> 100 µM,> 100 µM,> 100 µM,> 100 µM,> 100 µM,> 100 µM,> 100 µM,> 100 µM,> 100 µM,> 100 µM,> 100 µM,> 100 µM,> 100 µM,> 100 µM,> 100 µM,> 100 µM,> 100 µM,> 100 µM
O=C1C(N2CCN(c3ccccn3)CC2)=C(Cl)C(=O)c2ncccc21,> 6.76 µM,> 5.27 µM,> 10 µM,4.06 µM,2.75 µM,3.64 µM,3.68 µM,> 10 µM,> 10 µM,> 10 µM,3.95 µM,> 10 µM,3.49 µM,> 5.53 µM,1.95 µM,4.67 µM,> 10 µM,2.12 µM,> 5.88 µM
COc1ccc(OC)c(-c2nc3n(c2/C=C2/C(=O)Nc4ccccc42)CCS3)c1,> 100 µM,40 µM,> 100 µM,> 100 µM,> 100 µM,> 100 µM,> 100 µM,> 100 µM,> 100 µM,> 100 µM,> 100 µM,> 100 µM,> 100 µM,> 100 µM,> 100 µM,79 µM,> 100 µM,> 100 µM,> 100 µM
